What was measured:
[1] = test system: MAPT exon 10 splicing in LAN5 cells; assay: 4R/3R endogenous MAPT mRNA by RT-qPCR in LAN5 neuroblastoma cells; type: cell-based
Experimental: RNA Isolation and Real-Time Quantitative PCR (RT-qPCR). HeLa cells were treated as described in the Luciferase Reporter assay to Study Exon 10 Alternative Splicing. LAN5 cells were seeded in 12-well plates at 0.2×10^6 cells per well, treated with compound or ASO, and incubated for 48 h. Compound stocks prepared in DMSO and ASO stocks prepared in water were diluted in growth medium and added to cells. Total RNA was extracted from cells and analyzed via RT-qPCR to determine levels of 3R and 4R tau mRNA. In brief, the cells were washed with 1×DPBS and then lysed in the well using 300 μL of Lysis Buffer provided in a Quick-RNA MiniPrep kit (Zymo Research), which was used to extract total RNA per the manufacturer's protocol including the on-column DNase I digestion. The concentration of total RNA was measured by NanoDrop 2000 (Thermo Fisher Scientific). Only samples with OD260/OD280>1.8 were carried forward for analysis. Reverse transcription (RT) was carried out on 200 ng of total RNA using a qScript cDNA synthesis kit (QuantaBio) in a total volume of 10 μL according to the manufacturer's protocol. An Applied Biosystems QS5 384-well PCR system was used to complete qPCR reactions with Power SYBR Green Master Mix (Life Technologies), 600 nM each primer (Table S3), 20 ng of cDNA (1 μL of the RT reaction), in a total volume of 33 μL. Technical triplicates (10 μL each) were aliquoted into 384-well qPCR plates (Applied biosystems, 4483285). Subsequent qPCR analysis was performed using an Applied Biosystems QS5 384-well PCR system (software v.1.3.0). 4R/3R ratio were analyzed using ΔΔCt method using Equation 2: […]
where ΔCt 4R or ΔCt 3R is the difference between the Ct values for the 4R or 3R MAPT mRNA and a housekeeping gene (18S rRNA) in total RNA from cells.

[2] = test system: WT I17T MAPT exon 10 mini-gene luciferase reporter; assay: Luciferase reporter assay, WT I17T mutant mini-gene in HeLa cells; type: cell-based; conditions: Homo sapiens, 48 h, 5 μM (highest dose), read-out: reduction of luciferase activity
Experimental: Luciferase-reporter Assay to Study Exon 10 Alternative Splicing. The exon 10 mini-genes, both WT and DDPAC and mutant thereof, fused to firefly luciferase, have been previously described.^18 HeLa cells were seeded in 60 mm diameter dishes and incubated for 12-16 h to 70% confluency. They were then transfected with WT, WT+I17T, DDPAC, or DDPAC+I17T luciferase reporter minigenes using JetPrime (Polyplus Transfection) per the manufacturer's recommended protocol and incubated for 4 h. After transfection, the cells were collected by trypsinization and re-seeded in 96-well plates at 0.2×10^5 cells per well, followed by treatment of compounds after 4 h. Compound stocks prepared in DMSO were diluted in growth medium and added to cells with final DMSO concentration at 0.1% (v/v). After a 48 h treatment period, the cells were washed with 1× DPBS. Each well was added with a mixture of 10 μL WST-1 reagent and 90 μL of growth medium. After incubation at 37° C. for 45 min, absorbance was measured at 450 and 690 nm. A690 as background was subtracted from A450 to obtain A450′. […] The plate was incubated at room temperature for 20 min and the luminescence was measured with a […] plate reader (1000 ms integration time). The resulted luminescence was normalized to A450′.

LAN5 transcriptome = assay: RNA-seq transcriptome-wide selectivity in LAN5 cells; type: cell-based, human
Experimental: RNA-Seq. LAN5 cells in 12-well plate (~60% confluency) were treated with 2 (1.5 μM), 0.1% (v/v) DMSO (vehicle), 4R-to-3R tau ASO (0.5 μM), or scrambled ASO (0.5 μM) for 48 h. Total RNA was extracted using an RNeasy Mini Kit (Qiagen) per the manufacturer's protocol. Next, rRNA was depleted using NEBNext rRNA depletion modules (E6310L, New England Biosciences) and prepared with NEBNext Ultra II Dir RNA Lib Prep Kit (E7760S, New England Biosciences) according to the manufacturer's protocol. The prepared libraries were processed with NextSeq 500/550 High Output Kit v2.5 (Illumina, 20024907) per the manufacturer's protocol and then sequenced on a NextSeq 500. After sequencing, the BCL files were converted to FASTQ files using basemount/0.12.8.1516 and bcl2fastq/2.17.1.14.^33 The sequencing depth was over 82 million for each sample.
FastQC^34 and RSeQC^35 were used to determine the quality of reads and any overrepresentation of sequences. HISAT2^36 was used to map the reads to the reference human genome (hg19), and the output SAM files were converted to BAM files and sorted by index. Kallisto^37 and NCBI reference sequences (RefSeq)^38 were used for gene quantification to calculate transcripts per million (TPM). Differentially expressed genes were detected with Sleuth^39 and determined by a multiple test corrected p-value<0.05. Splicing event PSI values were quantitated using MISO.^40

COc1cc(N)ncc1CCCN(C)CCCn1cnc2c3ccccc3n(C)c2c1=O [Compound 2, 3-(3-((3-(6-amino-4-methoxypyridin-3-yl)propyl)(methyl)amino)propyl)-5-methyl-3,5-dihydro-4H-pyrimido[5,4-b]indol-4-one]
inhibition at 1.5 µM ([1]; LA-N-5, 2 at 1.5 μM, LAN5, 48 h, RT-qPCR, read-out: reduction of 4R/3R ratio of MAPT RNA): 56 ± 4%
PSI10 (PSI of MAPT exon 10) vs vehicle ([1]; LAN5 cells): downregulated
inhibition at 5 µM [2]: ~15%
expression of MAPT gene (LAN5 transcriptome; 2 at 1.5 μM or ASO 0.5 μM): Neither 2 nor the ASO altered the expression of MAPT gene
alternative splicing of MAPT exons (exon 10) (LAN5 transcriptome; 2 at 1.5 μM or tau ASO 0.5 μM): only one significantly reduced
genes unchanged, percent (LAN5 transcriptome; 2 at 1.5 μM, 48 h): 99.73%
